Assay results as given in patent US20030224422A1, “Pre-and post therapy gene expression profiling to identify drug targets” (St. Jude Children's Research Hospital, Inc., priority 2002, published 2003).

Test system: bone marrow leukemic blasts obtained from children with ALL
Assay: Oligonucleotide microarray (Affymetrix HG-U95A) fold-change in gene expression, post-treatment vs diagnosis, in patients in vivo
Parameters: species or system human
Details: for number of genes that were down-regulated after single agent / number of genes that were up-regulated (increased) after single agent: changed by >50% in over 70% of patients; for number of genes that changed expression by at least 50%: in over 70% of patients treated
Protocol: To elucidate genomic determinants of leukemia response to chemotherapy, oligonucleotide microarrays (Affymetrix® HG-U95A GeneChip) were used to analyze expression of approximately 9,600 human genes in bone marrow leukemic blasts obtained from children with ALL, at diagnosis and one day post-treatment with mercaptopurine (1 gm/^2 IV) or methotrexate (MTX) given alone (1 gm/m^2 IV), or mercaptopurine (6-MP) in combination with either low-dose MTX [180 mg/m^2 orally] or high-dose MTX [[…]]). A stratified (immunophenotype, DNA ploidy) randomization was used to assign treatment, and the fold-change in gene expression (post-treatment to diagnosis) was computed for 60 patients. Using linear discriminate analysis with variance (LDAV) genes that most discriminated among treatments were selected based on expression changes (fold-change from diagnosis to post-treatment) or based on post-treatment expression levels alone. […] Leave-one-out cross-validation using support-vector-machine (SVM), based on the 120 most discriminating genes, correctly classified 60 out of 60 patients (100%) based on fold-change versus 58 out of 60 (96.7%) using only post-treatment expression profiles. The smallest number of genes for discrimination among treatments was 120 using fold-change, which included genes involved in cellular processes such as apoptosis, cell cycle control and stress response. Together, these in vivo data reveal unique, treatment-specific changes in gene expression in primary leukemia cells, establishing that changes in expression differ according to the specific medication, dosage and combination given. These findings provide new insights to cancer cell responses to chemotherapy and can be used to illuminate mechanisms of leukemia resistance and identify novel targets to augment existing treatment modalities.
Primary leukemia cells. This study included 60 patients with ALL enrolled on St. Jude Children's Research Hospital Total Therapy Studies XIIIB and XV. Bone marrow samples were obtained at diagnosis (pre-treatment) and one day post-treatment with mercaptopurine (6-MP) or methotrexate (MTX) given alone, or mercaptopurine in combination with either low-dose MTX (LDMTX/6-MP) or high-dose MTX (HDMTX/6-MP). A stratified (immunophenotype, DNA ploidy) randomization was used to assign treatment. Total RNA was extracted from cryopreserved mononuclear cell suspensions with TriReagent (MRC, Cincinnati, Ohio).
Mircoarray analysis. High quality RNA was hybridized to Affymetrix HG-U95A GeneChipe (12,600 probe sets, ˜9,600 human genes) according to the manufacturers protocol (Affymetrix, Santa Clara, Calif.). Scaled gene expression values for pre-treatment, post-treatment and fold-change (post-treatment vs. pre-treatment ratio) were calculated using Affymetrix Microarray Suite® (MAS) 5.0.
Gene expression data analysis. Analysis was done on fold-change and on post-treatment expression. The data were log-transformed and probe sets were filtered out if “absent” in all 120 arrays or if “no change” in all 60 fold-change ratios. Principal component analysis (PCA) and 2D-hierarchical clustering was performed using GeneMath 1.5 (AppliedMaths, Belgium). We applied supervised methods to find the most discriminating genes, including Linear Discriminant Analysis with Variance (LDAV) (GeneMaths) and ANOVA. Probe sets were ranked according to their discriminating power. To establish that these genes could classify treatments and to find significant genes, leave-one-out cross-validation was performed by support vector machine (SVM) with the top ranked probe sets. […] The p-value is defined as the probability of observing a misclassification rate less or equal to that in the experimental data. 250 permutations were performed. To distinguish one treatment from the other treatments, distinction calculation (Spotfire 6.3, Somerville, Mass.) was performed for each probe set. Permutations (n=1000) were performed to obtain the p-values. […]

## CN(Cc1cnc2nc(N)nc(N)c2n1)c1ccc(C(=O)N[C@@H](CCC(=O)O)C(=O)O)cc1 [HDMTX, Methotrexate]
HDMTX 24 h vs 4 h infusion, data pooled
  difference in gene expression between infusion for 24 h and infusion for 4 h: No difference
  number of genes that were down-regulated after single agent: 59 genes
  number of genes that were up-regulated (increased) after single agent: 38 genes
  number of genes that changed expression by at least 50%: 97 genes

## S=c1nc[nH]c2nc[nH]c12 [MP, Mercaptopurine]
  number of genes that were down-regulated after single agent: 40 genes
  number of genes that were up-regulated (increased) after single agent: 158 genes
  number of genes that changed expression by at least 50%: 197 genes
